Experiments:
[1] = target: T1, truncated GlpG transmembrane core domain (Escherichia coli, UniProt P09391); conditions: qualitative statement, no data shown; cited from earlier work
T1 construct: The transmembrane core domain of GlpG (residues 87-276) was purified as described previously; made in house

rhomboid protease = conditions: qualitative statement; cited from earlier work
[2] = target: T1, truncated GlpG transmembrane core domain; test: In vitro protease activity assay of GlpG core domain; assay type: biochemical, E. coli; conditions: for inhibition of GlpG by other detergents: wide range of concentrations up to several times their CMCs, data not shown
Procedure: Structural characterization of E. coli rhomboid protease, GlpG, was carried out using an N-terminally truncated GlpG transmembrane core domain (residues 87-276). In vitro characterization of the enzymatic activity of the truncated GlpG was reconstituted to validate the use of the GlpG core domain for crystallographic studies was carried out using two separate assays. Proteolytic activity of purified truncated GlpG core domain on an artificial protein substrate in detergent micelles was analyzed at 37° C. […] Proteolytic activity of purified truncated GlpG core domain was also compared with full length GlpG using C100-Spitz-Flag as substrate.
Combinatorial library technology provides an efficient way of testing a potentially vast number of different substances for their ability to modulate the activity of a rhomboid protease. In some embodiments, test substances may be screened for their ability to interact with the rhomboid protease in an enzymatic assay. For example, in one such enzymatic assay an artificial protein substrate, such as, for example, a membrane: associated protein, such as, CED-4, or C100-Spitz-Flag may be contacted with a rhomboid protease, such as GlpG. Cleavage products may then be analyzed by, for example, sodium dodecyl-sulfate polyacrylamide gel electrophoresis (SDS-PAGE). A test substance may be added to such an enzymatic, assay as a separate component, and modulation of the enzymatic activity of the rhomboid protease may be apparent by a reduction or enhancement of the amount or type of cleavage product. The modulation of activity may be indicative of binding of the test substance to the rhomboid protease.
The proteolytic activity of GlpG was examined as described by Wu et al.

T1 sequence (P09391 87-276): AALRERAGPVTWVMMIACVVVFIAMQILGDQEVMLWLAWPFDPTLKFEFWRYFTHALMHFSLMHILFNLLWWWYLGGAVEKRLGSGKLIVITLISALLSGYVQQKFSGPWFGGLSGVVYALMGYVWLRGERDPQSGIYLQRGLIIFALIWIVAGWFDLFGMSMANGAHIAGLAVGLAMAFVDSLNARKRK

SMILES	inhibition of rhomboid activity (rhomboid protease)	specificity for rhomboid (rhomboid protease)	inhibition of GlpG by other detergents [2]	also measured
O=c1oc(Cl)c(Cl)c2ccccc12 [DCI, Dichloroisocoumarin]	inhibit rhomboid activity	lack specificity		inhibition of GlpG [1]: relatively potent inhibition
CCCCCCCCOCCOCCOCCOCCO [C8E4, tetraethyleneglycol monooctyl ether]				inhibition of enzymatic activity on artificial substrate ([2]; at concentrations above its critical micelle concentration (CMC), artificial substrate, FIG. 4A left panel): inhibit enzymatic activity; inhibition of proteolysis of C100-Spitz-Flag ([2]; substrate C100-Spitz-Flag, FIG. 4A right panel): inhibition is also observed
Cc1ccc(S(=O)(=O)N[C@@H](Cc2ccccc2)C(=O)CCl)cc1 [TPCK]	inhibit rhomboid activity	lack specificity		
CCCCCCCCCO[C@@H]1O[C@H](CO)[C@@H](O)[C@H](O)[C@H]1O [nonyl glucoside]			no inhibition	
CCCCCCCCCCCC[N+](C)(C)[O-] [LDAO]			no inhibition	

Source: patent publication US20090062150A1, “COMPOSITIONS AND METHODS FOR REGULATING INTRAMEMBRANE PROTEASES” (priority 2006, published 2009)
